# Test results published in patent US20150366827A1, “COMPOSITIONS AND METHODS FOR MIXING AND APPLYING MIXED OXIDANT COMPOSITIONS FOR DAIRY ANIMAL TREATMENT” (GEA Farm Technologies, Inc., priority 2009, published 2015).
# How the values were obtained:
# [1] = Loss of mixed oxidant activity on exposure to additives (iodometric thiosulfate titration); assay type: physicochemical; design: % Loss of mixed oxidant activity at (23° C.) / % Loss of Activity at (23° C.): concentration or dose not given beside the values; conditions: for % Loss of mixed oxidant activity after 24 hours at (23° C.) exposure to mixed oxidant: emollients, beginning mixed oxidant 3800-4100 ppm as available chlorine
# Experimental: The activity of a mixed oxidant system is preferably measured with an iodometric titration by the addition of excess iodide and acid and titration of the resulting iodine (in the form of triiodide) with sodium thiosulfate. This method can measure the various oxidants in the mixture, comprising chlorine.
# (§1) A teat dip composition is defined as stable when the activity of the mixed oxidant decreases by less than about 25% over a 12 hour to 72 hour period. The Tables 1 through 3, and 5 below show the stability of mixed oxidants when exposed to various additives for 12 hours to 96 hours. […] In each Table 1 through 5, the beginning mixed oxidant titrated at between 3800 ppm to 4100 ppm measured as available chlorine.
# [2] = Loss of color of colorants exposed to mixed oxidant, judged on teat; assay type: physicochemical, dairy animal
# Experimental: as §1
# Colorants are added to teat dips to provide a visual indicator that a teat dip was applied to a diary animal teat.
# Preferably, a stable colorant is added to the teat sanitizer composition, but the colorant must be visible on the teat at the Ready-to-Use concentration. Some colorants are unacceptable because they are stable in their color in solution, but they are not visible on the teat after an exposure to the mixed oxidant for a period of time.
# [3] = chelators, 0.1 days exposure to mixed oxidant, 23° C.
molecule,measurement,setting,value
"O=P(O)(O)OP(=O)(O)OP(=O)(O)O [Na, sodium Tripolyphosphate]",Stability of chelator with mixed oxidant (in words),[1]; chelators compatible with mixed oxidant,stable
same,% Loss of mixed oxidant activity at (23° C.),"[1]; chelators, 2 days exposure to mixed oxidant, 23° C.",3.5%
O=C([O-])[C@H](O)[C@@H](O)[C@H](O)[C@H](O)CO.[Na+] [Sodium Gluconate],% Loss of mixed oxidant activity at (23° C.),[1]; [3],90%
CC(O)CO (stereo not drawn) [Propylene glycol],% Loss of mixed oxidant activity after 24 hours at (23° C.) exposure to mixed oxidant,[1]; 23° C.,71%
same,% Loss of mixed oxidant activity after 24 hours at (23° C.) exposure to mixed oxidant,"[1]; 23° C., listed as Propylene Glycol",7%
"CCCCCCCCCCCCc1ccc(S(=O)(=O)O)cc1 [DDBSA, dodecylbenzenesulfonic acid]",% Loss of Activity at (23° C.),"[1]; antimicrobials, 2 days exposure to mixed oxidant, 23° C.",6%
COc1cc(S(=O)(=O)[O-])c(C)cc1N=Nc1c(O)ccc2cc(S(=O)(=O)[O-])ccc12.[Na+].[Na+] [FD&C Red #40],Color intensity on teat after 1 day exposure to 4000 ppm mixed oxidant,[2],Clear
CCN(Cc1cccc(S(=O)(=O)[O-])c1)c1ccc(C(=C2C=CC(=[N+](CC)Cc3cccc(S(=O)(=O)[O-])c3)C=C2)c2ccccc2S(=O)(=O)[O-])cc1.[Na+].[Na+] [FD&C Blue 1],Color intensity on teat after 1 day exposure to 4000 ppm mixed oxidant,[2],Clear
CC(C)CCCCCCCCCCCCCCC(=O)OC(C)C [Isopropyl Isostearate],% Loss of mixed oxidant activity after 24 hours at (23° C.) exposure to mixed oxidant,[1]; 23° C.,11%
O=S(=O)([O-])c1ccc(N=Nc2c(O)ccc3cc(S(=O)(=O)[O-])ccc23)cc1.[Na+].[Na+] [Yellow #6],Color intensity on teat after 1 day exposure to 4000 ppm mixed oxidant,[2],Clear
CC(C)CCCCCCCCCCCCCCCOC(=O)CCCCC(=O)OCCCCCCCCCCCCCCCC(C)C [Diisostearyl Adipate],% Loss of mixed oxidant activity after 24 hours at (23° C.) exposure to mixed oxidant,[1]; 23° C.,13%
OC[C@@H](O)[C@@H](O)[C@H](O)[C@@H](O)CO [Sorbitol],% Loss of mixed oxidant activity after 24 hours at (23° C.) exposure to mixed oxidant,[1]; 23° C.,78%
CCCCCCCCCCCCCCCCCC(=O)OCCCCCCCC [Octyl stearate],% Loss of mixed oxidant activity after 24 hours at (23° C.) exposure to mixed oxidant,[1]; 23° C.,11%
EDTA 100,% Loss of mixed oxidant activity at (23° C.),[1]; [3],94%
O=C([O-])C1=NN(c2ccc(S(=O)(=O)[O-])cc2)C(=O)C1N=Nc1ccc(S(=O)(=O)[O-])cc1.[Na+].[Na+].[Na+] (stereo not drawn) [Yellow #5],Color intensity on teat after 1 day exposure to 4000 ppm mixed oxidant,[2],Clear
same,Visibility of the dye once applied to a dairy animal teat,[2]; after exposure to mixed oxidant,unacceptable
same,Color in the composition after exposure to the mixed oxidant,"[2]; in solution, after exposure to mixed oxidant",still has some color
Nonylphenol ethoxylate,% Loss of mixed oxidant activity at (23° C.),"[1]; surfactants, 2 days exposure to mixed oxidant, 23° C.",55%
OCC(O)CO [Glycerin],% Loss of mixed oxidant activity after 24 hours at (23° C.) exposure to mixed oxidant,[1]; 23° C.,97%
CN(C)c1ccc2nc3ccc(=[N+](C)C)cc-3sc2c1 [Methylene Blue],Color intensity on teat after 1 day exposure to 4000 ppm mixed oxidant,[2],Clear
Cocamido propyl betaine,% Loss of mixed oxidant activity at (23° C.),"[1]; surfactants, 1 day exposure to mixed oxidant, 23° C.",56%
